Measured values as given in US9926304B2, “1-(arylmethyl)quinazoline-2,4(1H,3H)-diones as PARP inhibitors and the use thereof” (Impact Therapeutics, Inc., priority 2011, dated 2018).
Where a name gives a salt, the structure may show the parent alone. Read-outs that look alike come from different tables or passages of the source.

Key:
[1] = test system: Human breast cancer cell line T47D; experiment: Cell based caspase-3 activity assay: potentiation of MMS induced apoptosis; settings: T47D cells, 11.1 μg/ml MMS, 24 hours, intracellular caspase-3 activity, read-out: EC50 (nM), potentiation of the apoptosis inducing activity of MMS
Outline: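 T47D cells were exposed for 24 h to compound plus a minimally apoptotic MMS dose (medium containing 11.1 μg/ml MMS). Lysates were incubated 3 h at 37 °C with (Ac-DEVD)2-R110 caspase-3 substrate (20 μM in added buffer) and read at ex 496/em 520 nm. EC50 came from a sigmoidal fit of RFU versus log concentration.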

[2] = test system: SW620 human colorectal cancer cells; experiment: MTT based cell viability assay: potentiation of the growth inhibiting activity of MMS
[3] = Homo sapiens, SW-620, 120 h, read-out: IC50 (nM), potentiation of the growth inhibiting activity of MMS, SW620 cells, 1.7 μg/ml MMS, 5 days (120 hours), MTT

Structure (SMILES)	EC50 ([1]; Homo sapiens, T47D, 24 h)	IC50 [2, 3]	other results
O=C(c1cccc(Cn2c(=O)[nH]c(=O)c3cc([N+](=O)[O-])ccc32)c1)N1CCN(C(=O)C2CCCCC2)CC1 [Example 92, 1-(3-(4-(Cyclohexylcarbonyl)piperazine-1-carbonyl)benzyl)-6-nitroquinazoline-2,4(1H,3H)-dione]	2930 nM	> 10000 nM	
O=C(c1cc(Cn2c(=O)[nH]c(=O)c3c(F)cccc32)ccc1F)N1CCN(c2ncccn2)CC1 [Example 193, 5-Fluoro-1-(4-fluoro-3-(4-(pyrimidin-2-yl)piperazine-1-carbonyl)benzyl)quinazoline-2,4(1H,3H)-dione hydrochloride]			EC50 ([1]; hydrochloride): 1.6 nM; IC50 ([2]; read-out: IC50 (nM), potentiation of the growth inhibiting activity of MMS, SW620 cells, 1.7 μg/ml MMS, 5 days (120 hours), MTT, hydrochloride): 4.5 nM
O=C(c1cccs1)N1CCN(C(=O)c2cc(Cn3c(=O)[nH]c(=O)c4cc(Cl)ccc43)ccc2F)CC1 [Example 121, 6-Chloro-1-(4-fluoro-3-(4-(thiophene-2-carbonyl)piperazine-1-carbonyl)benzyl)quinazoline-2,4(1H,3H)-dione]	4.9 nM	4.5 nM	
C[C@]1(c2nc3c(C(N)=O)cccc3[nH]2)CCCN1 [ABT-888, reference compound]			EC50 [1]: 3490 nM; IC50 ([2]; read-out: IC50 (nM), potentiation of the growth inhibiting activity of MMS, SW620 cells, 1.7 μg/ml MMS, 5 days (120 hours), MTT): 2640 nM
O=C(c1ccc(F)c(Cn2c(=O)[nH]c(=O)c3cc(Cl)ccc32)c1)N1CCN(c2ccccn2)CC1 [Example 174, 6-Chloro-1-(6-fluoro-3-(4-(pyridin-2-yl)piperazine-1-carbonyl)benzyl)quinazoline-2,4(1H,3H)-dione]	37 nM	94 nM	
Cc1ccc2c(c1)c(=O)[nH]c(=O)n2Cc1ccc(F)c(C(=O)N2CCN(C(=O)C3CCCCC3)CC2)c1 [Example 84, 1-(3-(4-(Cyclohexylcarbonyl)piperazine-1-carbonyl)-4-fluorobenzyl)-6-methylquinazoline-2,4(1H,3H)-dione]	18 nM	52 nM	
O=C(c1ccc(Cn2c(=O)[nH]c(=O)c3ccccc32)o1)N1CCN(C(=O)C2CCCC2)CC1 [Example 67, 1-((2-(4-(Cyclopentylcarbonyl)piperazine-1-carbonyl)furan-5-yl)methyl)quinazoline-2,4(1H,3H)-dione]	4820 nM	2050 nM	
O=C(c1ccccc1)N1CCN(C(=O)c2cc(Cn3c(=O)[nH]c(=O)c4c(F)cccc43)ccc2F)CC1 [Example 137, 1-(3-(4-Benzoylpiperazine-1-carbonyl)-4-fluorobenzyl)-5-fluoroquinazoline-2,4(1H,3H)-dione]	2.1 nM	7 nM	
O=C(c1cc(F)cc(Cn2c(=O)[nH]c(=O)c3ccccc32)c1)N1CCN(C(=O)C2CCCC2)CC1 [Example 64, 1-(3-(4-(Cyclopentylcarbonyl)piperazine-1-carbonyl)-5-fluorobenzyl)quinazoline-2,4(1H,3H)-dione]	51 nM	177 nM	

The next lines start with results.

EC50 ([1]; Homo sapiens, T47D, 24 h)	IC50 [2, 3]	Structure (SMILES)	other results
590 nM	58 nM	O=C(c1cc(Cn2c(=O)[nH]c(=O)c3c(F)cccc32)ccc1F)N1CCN(c2ccccc2)CC1 [Example 213, 5-Fluoro-1-(4-fluoro-3-(4-phenylpiperazine-1-carbonyl)benzyl)quinazoline-2,4(1H,3H)-dione]	
> 10000 nM	> 10000 nM	Cc1cccc2c(=O)n(Cc3cccc(C(=O)N4CCN(c5ncccn5)CC4)c3)c(=O)[nH]c12 [Example 225, 8-Methyl-3-(3-(4-(pyrimidin-2-yl)piperazine-1-carbonyl)benzyl)quinazoline-2,4(1H,3H)-dione]	
2.4 nM	4.9 nM	O=C(c1ccccc1)N1CCN(C(=O)c2cc(Cn3c(=O)[nH]c(=O)c4cc(F)ccc43)ccc2F)CC1 [Example 181, 1-(3-(4-Benzoylpiperazine-1-carbonyl)-4-fluorobenzyl)-6-fluoroquinazoline-2,4(1H,3H)-dione]	
6.1 nM	13 nM	O=C(c1ccc(F)c(Cn2c(=O)[nH]c(=O)c3cc(F)ccc32)c1)N1CCN(C(=O)C2CCC2)CC1 [Example 183, 1-(3-(4-(Cyclobutylcarbonyl)piperazine-1-carbonyl)-6-fluorobenzyl)-6-fluoroquinazoline-2,4(1H,3H)-dione]	
